Reference: PubChem BioAssay (NCI)
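1) Cells in 96-well plates. 2) Compound, 48 h, 5 concentrations. 3) Linear interpolation between surrounding doses. 4) Unreached endpoint = highest concentration. The concentration for full growth arrest is given as TGI.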

Columns and labels:
Experiment in all cases: growth of human tumour cells (NCI), 48 h
[1] = test system: OVCAR-5 ovarian
[2] = test system: SW-620 colon
[3] = test system: HOP-92 NSCLC
[4] = test system: T-47D breast
[5] = test system: NCI/ADR-RES ovarian
[6] = test system: SN12C renal
[7] = test system: EKVX NSCLC
[8] = test system: K-562 leukemia
[9] = test system: SF-539 CNS
[10] = test system: SF-295 CNS
[11] = test system: HCT-116 colon
[12] = test system: SNB-19 CNS
[13] = test system: TK-10 renal
[14] = test system: SR leukemia
[15] = test system: HT29 colon
[16] = test system: SF-268 CNS
[17] = test system: SK-MEL-5 melanoma
[18] = test system: MDA-N
[19] = test system: UACC-257 melanoma
[20] = test system: MOLT-4 leukemia
[21] = test system: RXF 393 renal
[22] = test system: OVCAR-8 ovarian
[23] = test system: CAKI-1 renal
[24] = test system: LOX IMVI melanoma
[25] = test system: OVCAR-4 ovarian
[26] = test system: UO-31 renal
[27] = test system: HCT-15 colon
[28] = test system: MDA-MB-435
[29] = test system: MALME-3M melanoma
[30] = test system: RPMI-8226 leukemia
[31] = test system: SK-MEL-28 melanoma
[32] = test system: KM12 colon
[33] = test system: HCC-2998 colon
[34] = test system: NCI-H460 lung
[35] = test system: SNB-75 CNS
[36] = test system: 786-0 renal
[37] = test system: SK-MEL-2 melanoma
[38] = test system: CCRF-CEM leukemia
[39] = test system: A549 NSCLC
[40] = test system: BT-549 breast
[41] = test system: MCF7 breast
[42] = test system: NCI-H23 lung
[43] = test system: A498 renal
[44] = test system: NCI-H522 lung
[45] = test system: HL-60(TB) leukemia
[46] = test system: HS 578T breast
[47] = test system: ACHN renal
[48] = test system: COLO 205 colon
[49] = test system: DU-145 prostate
[50] = test system: UACC-62 melanoma
[51] = test system: M14 melanoma
[52] = test system: HOP-62 NSCLC
[53] = test system: PC-3 prostate
[54] = test system: OVCAR-3 ovarian
[55] = test system: U251 CNS
[56] = test system: IGROV1 ovarian
[57] = test system: SK-OV-3 ovarian
[58] = test system: MDA-MB-231 breast
[59] = test system: NCI-H226 lung

## COc1cc(C2c3cc4c(cc3OC(N3CCOCC3)C2C)OCO4)ccc1O (stereo not drawn)
[1]
  TGI: > 100 µM
[2]
  TGI: > 100 µM
[3]
  TGI: > 100 µM
[4]
  TGI: > 78.2 µM
[5]
  TGI: 52.2 µM
[6]
  TGI: > 100 µM
[7]
  TGI: > 100 µM
[8]
  TGI: 33 µM
[9]
  TGI: 35.6 µM
[10]
  TGI: 38.2 µM
[11]
  TGI: 50.4 µM
[12]
  TGI: > 100 µM
[13]
  TGI: > 100 µM
[14]
  TGI: > 68.9 µM
[15]
  TGI: > 100 µM
[16]
  TGI: > 100 µM
[17]
  TGI: > 80.4 µM
[18]
  TGI: 4.41 µM
[19]
  TGI: > 100 µM
[20]
  TGI: 60.7 µM
[21]
  TGI: 27.6 µM
[22]
  TGI: > 100 µM
[23]
  TGI: 71.1 µM
[24]
  TGI: > 58.9 µM
[25]
  TGI: > 100 µM
[26]
  TGI: > 92.8 µM
[27]
  TGI: > 100 µM
[28]
  TGI: > 26.3 µM
[29]
  TGI: > 100 µM
[30]
  TGI: 19.9 µM
[31]
  TGI: > 100 µM
[32]
  TGI: > 100 µM
[33]
  TGI: 52.5 µM
[34]
  TGI: 55.5 µM
[35]
  TGI: > 58 µM
[36]
  TGI: > 100 µM
[37]
  TGI: 33.6 µM
[38]
  TGI: > 91.8 µM
[39]
  TGI: > 100 µM
[40]
  TGI: > 100 µM
[41]
  TGI: > 83 µM
[42]
  TGI: > 95.7 µM
[43]
  TGI: 51.4 µM
[44]
  TGI: 58.4 µM
[45]
  TGI: 23.6 µM
[46]
  TGI: 41.9 µM
[47]
  TGI: > 100 µM
[48]
  TGI: > 100 µM
[49]
  TGI: > 100 µM
[50]
  TGI: > 100 µM
[51]
  TGI: > 63.5 µM
[52]
  TGI: > 63.8 µM
[53]
  TGI: > 100 µM
[54]
  TGI: 45.1 µM
[55]
  TGI: > 100 µM
[56]
  TGI: > 100 µM

## c1ccc(-c2nc(-c3ccccc3SSc3ccccc3-c3nc(-c4ccccc4)nn3-c3ccccc3)n(-c3ccccc3)n2)cc1
[1]
  TGI: > 100 µM
[2]
  TGI: > 100 µM
[3]
  TGI: > 100 µM
[4]
  TGI: > 100 µM
[5]
  TGI: > 100 µM
[6]
  TGI: > 100 µM
[7]
  TGI: > 100 µM
[8]
  TGI: > 100 µM
[9]
  TGI: > 100 µM
[10]
  TGI: > 100 µM
[11]
  TGI: > 100 µM
[12]
  TGI: > 100 µM
[13]
  TGI: > 100 µM
[57]
  TGI: > 100 µM
[14]
  TGI: > 100 µM
[16]
  TGI: > 100 µM
[18]
  TGI: > 100 µM
[20]
  TGI: > 100 µM
[21]
  TGI: > 100 µM
[22]
  TGI: > 100 µM
[58]
  TGI: > 100 µM
[23]
  TGI: > 100 µM
[24]
  TGI: > 100 µM
[26]
  TGI: > 100 µM
[27]
  TGI: > 100 µM
[28]
  TGI: > 100 µM
[29]
  TGI: > 100 µM
[30]
  TGI: > 100 µM
[31]
  TGI: > 100 µM
[32]
  TGI: > 100 µM
[33]
  TGI: > 100 µM
[34]
  TGI: > 100 µM
[35]
  TGI: > 100 µM
[36]
  TGI: > 100 µM
[38]
  TGI: > 100 µM
[39]
  TGI: > 100 µM
[40]
  TGI: > 100 µM
[41]
  TGI: > 100 µM
[42]
  TGI: > 100 µM
[43]
  TGI: > 100 µM
[45]
  TGI: > 100 µM
[46]
  TGI: > 100 µM
[47]
  TGI: > 100 µM
[48]
  TGI: > 100 µM
[49]
  TGI: > 100 µM
[59]
  TGI: > 100 µM
[50]
  TGI: > 100 µM
[51]
  TGI: > 100 µM
[53]
  TGI: > 100 µM
[54]
  TGI: > 100 µM
[55]
  TGI: > 100 µM
[56]
  TGI: > 100 µM
